Measurements from publication PMC5344539, “Nematode neuropeptides as transgenic nematicides” (PLoS Pathogens, 2017).

System: G. pallida J2s
Assay: Plant protection assay, C. reinhardtii secreting uNLPs
Assay type: in vivo, Globodera pallida
Conditions: Fig 4C; peptide secreted by transgenic C. reinhardtii culture in tomato invasion arena with 500 J2s; control = 100%; mean
Description: Tomato seeds were sterilised with 2.5% NaOCl for 15 minutes, washed 5 times in ddH20 and germinated on 0.5% Murashige and Skoog plates at 23°C. […] Invasion assays were performed by mixing 500 pre-treated M. incognita or G. pallida J2s with agar slurry and a single tomato seedling (2 days post germination) in a 6 well plate. Assays were left at 23°C for 24 hours in the case of M. incognita and at 18°C for 24 hours in the case of G. pallida under a 16 hour light and 8 hour darkness cycle. Seedlings were stained using acid fuschin [69] and the number of nematodes within the roots counted. At least five seedlings were used for M. incognita infections assays, with at least 15 seedlings used for G. pallida infections assays (due to increased variation).
B. subtilis were grown overnight in LB media containing ampicillin (100 μg/ml) at 37°C with shaking, and harvested in the log phase of growth determined by measuring OD600nm. Five ml of culture at 0.5 OD was spun down and the pellet mixed with 3 ml of agar slurry and 500 J2s from either G. pallida or M. incognita. C. reinhardtii clones were grown at 23°C with shaking, cultures in the log phase were measured at OD750 and 5 ml of culture at 0.5 OD was pelleted by centrifugation. C. reinhardtii pellets were mixed with 3 ml of agar slurry and 500 J2s from either G. pallida or M. incognita. Plant invasion assays were performed as described above. […]

## SFDSFTGPGFTGLD [Mi-NLP-15b, predicted unamidated NLP perfectly conserved between M. incognita and G. pallida; synthesised, also secreted from transgenic microbes]
  % Invasion: 30.95%
